Experimental data as given in US10203334B2, “Methods and compositions related to nucleic acid binding assays” (Nubad, LLC, priority 2012, dated 2019).

Tests used:
[1] = system: A-site RNA oligonucleotide (SEQ ID No. 1); format: physicochemical, E. coli
Protocol: The effect of A-site rRNA oligonucleotide (SEQ ID No. 1) on the absorbance spectra of fluorescein-neomycin at pH 7.1 was recorded in FIG. 7. The absorbance spectra of 3.0 mM fluorescein-neomycin in 20 mM MOPSO, 0.4 mM EDTA, 50 mM NaCl at pH 7.1 with the addition of 0 mM (112), 1.1 mM (114), 2.2 mM (116) or 3.3 mM (118) of A-site oligonucleotide (SEQ ID NO. 1), respectively is shown in FIG. 7A. Absorbance at 490 nm of fluorescein-neomycin:A-site complex as function of pH is show in FIG. 7B, with 3.0 mM fluorescein-neomycin complexed with 3.3 mM A-site oligonucleotide (SEQ ID No. 1) in 20 mM MOPSO, 0.4 mM EDTA, 50 mM NaCl at the indicated pH values.
With increasing pH, fluorescein-neomycin undergoes a transition between mono-anion and di-anion species. Fluorescein-neomycin concentration was 10 μM in 100 mM NaCl, 10 mM SC, 0.5 mM EDTA. As indicated by its absorbance spectra in FIG. 8A, the F-neo transitions from a mono-anion to a di-anion with increasing pH. FIG. 8B compares the absorbance spectra between the mono-anion and di-anion species of fluorescein neomycin. […] The absorbance peak of about 490 nm in FIGS. 8A and 8B is consistent with the phenolate species of fluorescein. The pKa for the equilibrium of the phenol and phenolate forms of F-neo (42a) was measured by evaluating the absorbance spectrum as a function of pH and shown to be 6.84. […] When monitoring the absorption spectrum in the presence of the A-site RNA (SEQ ID No. 1), a reduction in A490 consistent with the change in pKa was observed. This A490 reduction is consistent with a shift in equilibrium towards the protonated non-fluorescent form of fluorescein-neomycin upon binding to A-site. […] This shift in pKa causes a change in the fluorescence intensity of F-neo (42a).
The following equilibrium can be used to explain the probe function: FHNeo+Base=F(−)Neo+BH^+ Eq. (2) where FHNeo represents the protonated form of F-neo (42a). Upon binding to A-site RNA, F(−)Neo is destabilized by the negative potential of the RNA backbone, shifting the equilibrium towards FHNeo. Thus the binding of F-neo (42a) to RNA raises the pKa, making F-neo (42a) a weaker acid.
The local electrostatic potential (Ψ) in the major groove is given by the following Equation 3. Ψ=−[R·T·ln 10/(NA·e)]ΔpKa Eq. (3) Where ΔpKa is the difference between the free Fluorescein-neomycin and the Fluorescein-neomycin in the presence of the electrostatic environment, R is the universal gas constant, T is the absolute temperature in kelvin, NA is the Avogadro constant, and e is the elementary charge. R=8.312 J mol−1K−1, T=298.2K, NA=6.023×10^23 and e=1.602×10^−19; Ψ is expressed in mV. […] Based on this Δpka of 0.86, the electrostatic potential of the microenvironment for the fluorescein moiety in the complex is determined to be −50.9 mV.

[2] = system: E. coli rRNA A-site oligonucleotide (SEQ ID NO. 1); test: Fluorescence titration of F-neo with bacterial rRNA A-site oligonucleotide and titration of the complex with neomycin; format: binding; conditions: 1:1 stoichiometric ratio of conjugate and A-site oligonucleotide; pH 7.0
Description: This compound F-neo or 42a is a fluorescein conjugate coupled through the 5″ OH position of the ribose ring of neomycin B (H. Xi, E. Davis, N. Ranjan, L. Xue, D. Hyde-Volpe, D. P. Arya, Thermodynamics of nucleic Acid “shape readout” by an aminosugar, Biochemistry. 50 (2011) 9088-9113). E. coli rRNA Asite oligonucleotide (SEQ ID NO. 1, […]) is a synthetic RNA sequence 27 bases long designed to mimic the ribosomal A-site. The A-site oligonucleotide (SEQ ID NO. 1) is titrated into F-neo (42a) to give a concentration dependent loss of fluorescence of F-neo (42a). […]
The effect of bacterial A-site oligonucleotide (SEQ ID No. 1) on the fluorescence emission intensity of a fluorescein-neomycin conjugate (F-neo or 42a) is recorded in FIG. 2. […]
The F-neo (42a) can be competitively displaced from the A-site RNA oligonucleotide (SEQ ID No. 1) by the addition of non-fluorescent RNA binding drugs. Titrating neomycin into the F-neo (42a):A-site complex increases the fluorescence in a dose dependent manner that saturates at a 1:1 stoichiometric ratio of drug-to-complex. Additionally, a strong signal window, measured as an increase in fluorescence is present at a 3:1 molar ratio, and a maximum change in fluorescence at approximately 10:1 molar ratio. […] Fluorescence emission intensity (517 nm) of 0.3 mM A-site oligonucletide/F-neo complex solution increased with increasing concentration of neomycin. […]

d(GGGGCCCC)2 = test: ITC derived binding constant; conditions: 50 mM KCl, 10 mM SC, 0.5 mM EDTA (pH 6.0) at 25° C.
Description: Determination of the pKa was done using chemometric analysis of the absorption profiles at various pH values of the covalently attached fluorescein moiety (Kubista, M., et al., (1993) Anal. Chem. 65, 994-998, Kubista, M., et al., (1995) Anal. Chim. Acta. 302, 121-125.2, 3). The pH dependent absorption profile of free fluorescein-neomycin was first analyzed to determine its pKa. […] The electrostatic potential (P) calculated from the shift in pKa, and the ITC derived binding constant (K). Electrostatic potential experiments performed in 100 mM NaCl, 10 mM SC, 0.5 mM EDTA at 25° C. ITC experiments performed in 50 mM KCl, 10 mM SC, 0.5 mM EDTA (pH 6.0) at 25° C. […] Fluorescein-neomycin concentration was 10 μM. Table 1 represents the pKa values determined from the inflection point of the pH dependent absorbance scans of free fluorescein-neomycin, fluorescein-neomycin with one molar equivalent d(CCCCGGGG)2 and d(GGGGCCCC)2. The electrostatic potential (Y) calculated from the shift in pKa, and the ITC derived binding constant (K).

Structure (SMILES): NCC1O[C@H](OC2C(O)C(OC3C(O)[C@H](N)CC(N)[C@H]3O[C@H]3OC(CN)[C@@H](O)C(O)C3N)O[C@@H]2CSCCNC(=O)CCSCC(=O)Nc2ccc(-c3c4ccc(=O)cc-4oc4cc(O)ccc34)c(C(=O)O)c2)C(N)C(O)[C@@H]1O (stereo partly drawn) [F-neo (42a), Neomycin-Fluorescein Conjugate]
- electrostatic potential of the microenvironment for the fluorescein moiety in the complex ([1]; calculated from Δpka (Eq. 3)): −50.9 mV
- Δpka ([1]; complex versus free probe): 0.86
- apparent pKa of F-neo/A-site oligonucleotide complex ([1]; pH-dependent absorbance spectra): 7.7
- upward shift of the pKa upon binding of A-site ([1]; titration curve of A490): approximately one
- reduction in fluorescence emission intensity [2]: 3 fold
- K (M^−1) × 10^5 (d(GGGGCCCC)2): 66.3 ± 9.7 (M^−1) × 10^5
